# Results as given in the OPERA property sets (Mansouri et al. 2018).
Compound,boiling point,log10 Koa,log10 vapour pressure (mmHg),melting point,ready biodegradability,log10 Koc (L/kg),log10 Henry constant (atm·m³/mol)
C=CCCCC,63.4 °C,2.41,2.26,-140 °C,readily biodegradable,,
CNC(=O)Oc1c(C(C)(C)C)cc(C)cc1C(C)(C)C,,,,,not readily biodegradable,,
Cc1cc(Cl)ccc1O[C@H](C)C(=O)O,,,-5.58,,,,
CCOc1cc(Oc2ccc(C(F)(F)F)cc2Cl)ccc1[N+](=O)[O-],358 °C,,-6.7,84 °C,,5,
CC(C)(C)c1ccc2c(c1)C(=O)c1ccccc1C2=O,,,,99 °C,not readily biodegradable,,
Clc1ccc(Oc2cc(Cl)ccc2Cl)cc1,,,-3.76,,,,
Nc1ccc2c(n1)[nH]c1ccccc12,,,,202 °C,,,
CCCCC(CC)COC(=O)/C=C/C(=O)OCC(CC)CCCC (stereo not drawn),300 °C,,,-10 °C,,,
C[C@H](CCC(=O)O)[C@H]1CC[C@H]2[C@@H]3C(=O)C[C@@H]4CC(=O)CC[C@]4(C)[C@H]3CC(=O)[C@]12C,,,,237 °C,,,
NNc1ccc(Br)cc1,,,,108 °C,,,
O=C(O)c1ccc(CBr)cc1,,,,230 °C,,,
CCCCCCCCCCC=O,,,,-4 °C,,,
CCCC(C)(O)CCC,161 °C,,,-82 °C,,,
Clc1ccc2ccc(Cl)nc2c1,,,,120 °C,,,
O=C1C(Cl)=CC(=NCl)C=C1Cl,,,,66 °C,,,
CCCCC(C(=O)OCC)C(=O)OCC,238 °C,,,,,,
CNC(=O)Oc1ccccc1OC(CCl)OC (stereo not drawn),,,,80 °C,,,
CCc1ccc(C)o1,118 °C,,,,,,
O=C(O)c1c(Cl)ccc(Cl)c1Cl,,,-3.26,124 °C,not readily biodegradable,,
Cc1cc(C(=O)NNCc2ccccc2)no1,,,,106 °C,,,
c1ccc(C2CCCCC2)cc1,240 °C,,-1.4,7.3 °C,,,

Compound,boiling point,log10 Koa,log10 vapour pressure (mmHg),melting point,ready biodegradability,log10 Koc (L/kg),log10 Henry constant (atm·m³/mol)
c1ccc2c(c1)oc1ccccc12,287 °C,,-2.61,86.5 °C,readily biodegradable,3.91,
Clc1cc2c(cc1Cl)Oc1c(cc(Cl)c(Cl)c1Cl)O2,,10.6,-9.36,240 °C,,,
CC(=O)c1c(O)c(C)c(O)c2c1OC1=CC(=O)C(C(C)=O)C(=O)C12C (stereo not drawn),,,,204 °C,,,
CCCCCCC(O)CCCC (stereo not drawn),229 °C,,,-3.5 °C,,,
O=C(Nc1ccccc1)C(=O)Nc1ccccc1,,,,254 °C,,,
Cc1ccc([C@H](C)O)cc1,219 °C,,,,,,
CCOC(=O)C(C)C,110 °C,,1.4,-88.2 °C,,,
O=[N+]([O-])c1ccccc1F,,,,-6 °C,,,
C[C@H](CCC(=O)NCC(=O)O)[C@H]1CC[C@H]2[C@@H]3[C@H](O)C[C@@H]4C[C@H](O)CC[C@]4(C)[C@H]3C[C@H](O)[C@]12C,,,,166 °C,,,
CC=CC(C)C(=O)O (stereo not drawn),199 °C,,,,,,
O=COCC=Cc1ccccc1,252 °C,,,0 °C,,,
CCc1nn(CCCN2CCN(c3cccc(Cl)c3)CC2)c(=O)n1CCOc1ccccc1,,,,83.5 °C,,,
Cc1cccc(C)c1[N+](=O)[O-],226 °C,,,15 °C,,,
N#CCCCCCCCCCCC(=O)O,,,,,readily biodegradable,,
C[Si](Cn1cncn1)(c1ccc(F)cc1)c1ccc(F)cc1,,,,54 °C,,3.22,
COc1cccc(Cl)n1,186 °C,,,,,,
Ic1cc(I)c(I)cc1I,,,,254 °C,,,
CCCC(=O)OC,103 °C,,1.51,-85.8 °C,,,-3.69
C[C@@H](CO)NC(=O)[C@@H]1C=C2c3cccc4[nH]cc(c34)C[C@H]2N(C)C1,,,,162 °C,,,
CC(=O)OC[C@H]1O[C@@H](n2ncc(=O)[nH]c2=O)[C@H](OC(C)=O)[C@@H]1OC(C)=O,,,,100 °C,,,
CCOC(=O)CC(=O)C(F)(F)F,133 °C,,,,,,

Compound,boiling point,log10 Koa,log10 vapour pressure (mmHg),melting point,ready biodegradability,log10 Koc (L/kg),log10 Henry constant (atm·m³/mol)
Clc1cc(Cl)c2oc3c(Cl)c(Cl)c(Cl)cc3c2c1,,,-8.73,219 °C,,,
FC(F)(F)c1ccccc1Br,168 °C,,,,,,
CCCOC(=O)CCl,161 °C,,,,,,
O=C(O)Cc1ccc(-c2ccccc2)cc1,,,,160 °C,,,
C#COCC,50 °C,,,,,,
CC(C)(C)CCl,84.3 °C,,,-20 °C,,,
CNS(=O)(=O)c1ccc(C)cc1,,,,78.5 °C,,,
CCCCC(C)C(C)=O (stereo not drawn),164 °C,,,,,,
CCCCCCCCCCCCCCCC(=O)c1ccccc1,,,,59 °C,,,
CC(=O)N(CC(O)CO)c1c(I)c(C(=O)NCC(O)CO)c(I)c(C(=O)NCC(O)CO)c1I (stereo not drawn),,,,177 °C,,,
Fc1ccccc1C(F)(F)F,114 °C,,1.58,,,,
Fc1ccccc1Cl,138 °C,,,-43 °C,,,
CC=CC(=O)Cl,124 °C,,,,,,
O=C1C(Br)=CC(=NCl)C=C1Br,,,,83 °C,,,
CCCN(CCC)N=O,206 °C,,,,not readily biodegradable,,
CC(/C=C/C=C(\C)C(=O)O[C@@H]1O[C@H](CO[C@@H]2O[C@H](CO)[C@@H](O)[C@H](O)[C@H]2O)[C@@H](O)[C@H](O)[C@H]1O)=C\C=C\C=C(C)\C=C\C=C(/C)C(=O)O[C@@H]1O[C@H](CO[C@@H]2O[C@H](CO)[C@@H](O)[C@H](O)[C@H]2O)[C@@H](O)[C@H](O)[C@H]1O,,,,186 °C,,,
NC(=O)OCCCc1ccccc1,,,,102 °C,,,
COc1ccc2c3c1O[C@H]1[C@@H](O)C=C[C@H]4[C@@H](C2)N(C)CC[C@@]341.Cl,,,,280 °C,,,
CC1(C)CC(O)CC(C)(CN)C1 (stereo not drawn),265 °C,,,45.5 °C,,,
CCC(CC)C(C)(C)CC,163 °C,,,,,,
Nc1ncnc(Nc2ccccc2)n1,,,,236 °C,,,
